Test results reported in patent US8901155B2, “Method for treating a TRPV1-mediated disease” (Santen Pharmaceutical Co., Ltd., priority 2007, dated 2014).

Assays:
human TRPV1 = molecular target: T1, human TRPV1 (Homo sapiens, UniProt Q8NER1); experiment: Intracellular calcium influx in human TRPV1-expressing CHO cells; assay type: cell-based; settings: final concentration 1 μM; relative to 1 μM capsaicin
T1 construct: expressed in transfected cells; host or cells: CHO cells
Source text: 3. Measurement of Intracellular Calcium Influx by Present Compound in Human TRPV1-Expressing Cells
It is known that TRPV1 is an ion channel receptor and by the activation of TRPV1, intracellular calcium ion influx occurs. According to the method of Phelps et al. (Eur. J. Pharmacol., 513: 57-66, 2005), the action of the present compound of activating human TRPV1 was studied using CHO cells transfected with a gene encoding human TRPV1.
CHO cells were suspended in DMEM and seeded in a culture plate at 3.5×10^4 cells/well. A test compound or a control compound was dissolved in DMSO to prepare a DMSO solution, and times concentrated test compound-containing liquid and control compound-containing liquid each of which was composed of HBSS and contained the thus prepared DMSO solution were prepared.
To the CHO cells, a calcium indicator was added, and the resulting mixture was incubated at 37° C. for 30 minutes, and then further incubated at 22° C. for 30 minutes to achieve equilibration. Subsequently, one-tenth volume of the test compound-containing liquid, control compound-containing liquid (final concentration: 1 μM), or HBSS solution was added thereto, and a change in the fluorescence intensity of the intracellular calcium concentration indicator was measured.
(Calcium influx(%))=((fluorescence intensity in the presence of test compound)−(background fluorescence intensity)/(fluorescence intensity in the presence of control compound)−(background fluorescence intensity))×100

[1] = Rat model of indomethacin-induced gastric mucosal injury; assay type: in vivo; settings: indomethacin 30 mg/kg s.c., 6 hours
Method: 7. Effect in Rat Model of Gastrointestinal Dysfunction
A model of indomethacin-induced gastric mucosal injury is a model of gastrointestinal dysfunction widely used in the evaluation of drug efficacy of a therapeutic agent for ulcer. According to the method of Hoshino et al. (Folia Pharmacologica Japonica, Vol. 97, p. 287, 1991), the effect of the present compound in a rat model of indomethacin-induced gastric mucosal injury was studied.
A test compound-containing liquid was prepared immediately before use by suspending a test compound in a 1% aqueous methyl cellulose solution which is a vehicle. […]
To a rat fasted for 24 hours, the test compound-containing liquid, control compound-containing liquid, or vehicle (pathological control group) was orally administered, and immediately thereafter, indomethacin (Wako Pure Chemical Industries, Ltd.) was subcutaneously administered at a dose of 30 mg/kg. […] The length of the longest diameter of the site of a lesion dyed in blue including an ecchymosis was measured macroscopically using calipers.
A mean value of the sum of the longest diameters of the sites of lesions was obtained for each animal and was defined as an ulcer index. Further, a ratio of inhibition of gastric mucosal injury was calculated from the following equation. […]

vanilloid receptor = molecular target: T2, vanilloid receptor (Rattus norvegicus, UniProt O35433); experiment: Binding activity in rat spinal cord membrane specimen (3H-RTX competition)
T2 construct: Rat spinal cord was homogenized according to a common procedure; from tissue; host or cells: rat spinal cord membrane specimen
Method: Binding Activity of the Present Compound in Rat Spinal Cord Membrane Specimen
According to the method of Szallasi et al., the binding activity of the present compound to a vanilloid receptor contained in a rat spinal cord membrane specimen was studied.
A test compound-containing liquid and a competitive compound-containing liquid containing a test compound and a competitive compound, respectively, and each composed of purified water containing 1% DMSO were prepared. As the competitive compound, tritium-labeled resiniferatoxin (^3H-RTX) was used, and the concentration of ^3H-RTX in the competitive compound-containing liquid was set to 0.2 nM.
Rat spinal cord was homogenized according to a common procedure, and the resulting homogenate was washed several times, followed by centrifugation. The resulting pellet was suspended in an incubation buffer (10 mM HEPES, pH 7.4, 0.25 mg/ml ESA, 0.75 mM CaCl2, 5 mM KCl, 2 mM MgCl2, 5.8 mM NaCl, 137 mM sucrose) at 10 mg/mL, whereby a membrane specimen was prepared.
After 5.25 μL of the test compound-containing liquid and 500 μL of the membrane specimen were mixed, 20 μL of the competitive compound-containing liquid was added thereto, and the entire resulting mixture was incubated at 37° C. for 60 minutes. The resulting membrane/^3H-RTX complex was collected by filtration, followed by washing. Then, the radioactivity was measured with a scintillation counter.
The above-mentioned assay was performed using the test compound-containing liquids containing a test compound at various concentrations and the results were analyzed as follows.
The inhibition ratio (%) of the test compound at each concentration was obtained from the following equation. (Inhibition ratio(%))={1−[(binding activity in the presence of test compound (cpm))−(radioactivity of non-specific binding (cpm))]/[(radioactivity of total binding (cpm))−(radioactivity of non-specific binding (cpm))]×100 […]

TRPV1 = molecular target: T3, TRPV1 (Rattus norvegicus, UniProt O35433); experiment: CGRP release in cultured rat dorsal root ganglion-derived neurons; assay type: cell-based
T3 construct: A dorsal root ganglion isolated from the spinal cord of a rat was sectioned and enzymatically treated; endogenous in cells; host or cells: primary cultured rat dorsal root ganglion neurons
Source text: 2. Effect of Present Compound on TRPV1 Agonist-Induced CGRP Release System Using Rat Dorsal Root Ganglion-Derived Neurons It is known that TRPV1 is expressed in dorsal root ganglion (DRG), and that by the activation of TRPV1, CGRP which is a neurotransmitter is released from a nerve terminal. According to the method of Ahluwalia et al., (European Journal of Neuroscience, Vol. 17, p. 2611, 2003), the CGRP releasing activity of the present compound in cultured neurons derived from rat DRG was studied. A test compound was weighed and dissolved in DMSO. The resulting solution was diluted with a medium, whereby a test compound-containing liquid was prepared. Each test compound-containing liquid was prepared such that 0.4% DMSO was contained therein as well. […] A dorsal root ganglion isolated from the spinal cord of a rat was sectioned and enzymatically treated with a collagenase/DNase I solution at 37° C. for 1 hour, and then with a trypsin/DNase I solution at 37° C. for 20 minutes. The released neurons were washed and collected, and then seeded in a poly-D-lysine/laminin-coated culture dish and cultured under conditions of 37° C. and 5% CO2 in a neuronal medium (NGF/NCS medium) supplemented with a nerve growth factor for 1 day. The medium was replaced with an NGF/NCS medium containing cytosine arabinoside, and the neurons were further cultured for 2 days. […]

T2 sequence (O35433 whole entry): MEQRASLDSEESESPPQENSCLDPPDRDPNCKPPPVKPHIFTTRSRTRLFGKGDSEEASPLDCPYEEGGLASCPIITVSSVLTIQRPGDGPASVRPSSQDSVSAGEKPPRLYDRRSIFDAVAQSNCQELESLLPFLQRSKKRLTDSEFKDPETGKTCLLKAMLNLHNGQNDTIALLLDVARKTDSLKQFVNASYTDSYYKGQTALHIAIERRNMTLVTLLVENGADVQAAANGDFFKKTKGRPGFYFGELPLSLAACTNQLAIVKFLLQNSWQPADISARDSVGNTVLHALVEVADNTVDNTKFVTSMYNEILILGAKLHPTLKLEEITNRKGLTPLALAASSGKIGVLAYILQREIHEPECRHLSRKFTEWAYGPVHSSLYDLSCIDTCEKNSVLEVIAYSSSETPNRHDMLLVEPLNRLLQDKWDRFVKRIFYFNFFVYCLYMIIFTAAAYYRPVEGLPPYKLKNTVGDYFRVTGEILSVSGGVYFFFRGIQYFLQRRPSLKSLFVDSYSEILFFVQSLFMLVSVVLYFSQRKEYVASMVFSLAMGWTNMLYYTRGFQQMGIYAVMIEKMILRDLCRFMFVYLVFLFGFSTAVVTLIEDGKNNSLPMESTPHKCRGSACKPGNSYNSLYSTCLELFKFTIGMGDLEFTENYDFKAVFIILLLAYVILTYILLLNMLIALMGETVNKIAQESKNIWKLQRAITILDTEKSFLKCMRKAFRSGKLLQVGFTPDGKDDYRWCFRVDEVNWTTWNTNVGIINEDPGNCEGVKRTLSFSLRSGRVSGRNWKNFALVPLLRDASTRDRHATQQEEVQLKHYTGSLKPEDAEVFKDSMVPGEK
T1 sequence (Q8NER1 whole entry): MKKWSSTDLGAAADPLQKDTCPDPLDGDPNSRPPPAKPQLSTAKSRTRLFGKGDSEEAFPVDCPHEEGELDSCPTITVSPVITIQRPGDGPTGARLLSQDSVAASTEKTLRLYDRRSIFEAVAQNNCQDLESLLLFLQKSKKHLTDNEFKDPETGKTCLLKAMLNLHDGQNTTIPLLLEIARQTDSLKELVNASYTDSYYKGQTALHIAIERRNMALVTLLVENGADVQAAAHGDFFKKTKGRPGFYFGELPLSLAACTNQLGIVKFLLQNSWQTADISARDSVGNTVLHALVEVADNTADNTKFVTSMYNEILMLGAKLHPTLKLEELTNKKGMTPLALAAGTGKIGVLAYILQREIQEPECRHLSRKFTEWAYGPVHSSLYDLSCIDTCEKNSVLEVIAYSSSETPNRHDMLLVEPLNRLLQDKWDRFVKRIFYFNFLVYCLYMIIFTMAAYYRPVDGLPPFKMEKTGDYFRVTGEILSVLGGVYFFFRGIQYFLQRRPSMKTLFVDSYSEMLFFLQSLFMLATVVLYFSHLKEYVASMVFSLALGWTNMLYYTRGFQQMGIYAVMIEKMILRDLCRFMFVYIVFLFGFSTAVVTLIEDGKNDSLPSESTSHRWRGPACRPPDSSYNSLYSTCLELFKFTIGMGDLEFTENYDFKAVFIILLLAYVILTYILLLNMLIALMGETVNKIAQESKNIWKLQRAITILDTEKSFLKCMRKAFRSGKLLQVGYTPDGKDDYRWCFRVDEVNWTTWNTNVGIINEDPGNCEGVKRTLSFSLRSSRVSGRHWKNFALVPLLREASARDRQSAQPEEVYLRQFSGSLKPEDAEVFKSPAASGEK
T3 sequence (O35433 whole entry): as the sequence (O35433 whole entry) above

CCCCCN(CCC12CC3CC(CC(C3)C1)C2)C(=O)NCC(C)Cc1ccncc1 (stereo not shown) [Compound 5, 1-[2-(1-adamantyl)ethyl]-3-[2-methyl-3-(4-pyridyl)propyl]-1-pentylurea]
Calcium influx (%) (human TRPV1): 64.3%

CCCCCN(CCC12CC3CC(CC(C3)C1)C2)C(=O)NCCCc1ccncc1 [Compound 1, 1-[2-(1-adamantyl)ethyl]-1-pentyl-3-[3-(4-pyridyl)propyl]urea]
inhibition ratio (%) of gastric mucosal injury ([1]; 1 mg/kg oral): 67.41%
IC50 (vanilloid receptor; 0.2 nM 3H-RTX liquid, 37° C. 60 minutes, mean±SEM of assays performed in triplicate, read-out: IC50 value to the vanilloid receptor in the rat spinal cord neuronal membrane specimen): 191 ± 28 nM
Ki (vanilloid receptor; from IC50, dissociation constant 0.046 nM, mean±SEM, read-out: Ki value to the vanilloid receptor in the rat spinal cord neuronal membrane specimen): 35.8 ± 5.2 nM
Hill coefficient (vanilloid receptor; nonlinear regression of inhibition curve): 1.83±0.449
CGRP release in competitive inhibition assay with capsazepine (TRPV1; 10 μM (final concentration) capsazepine, FIG. 3): antagonized by capsazepine
CGRP release (TRPV1; absence of capsazepine, 10 minutes culture, FIG. 2): released CGRP in a dose-dependent manner

COc1ccc2[nH]c([S+]([O-])Cc3ncc(C)c(OC)c3C)nc2c1 (stereo not shown) [Omeprazole, omeprazole, reference compound]
inhibition ratio (%) of gastric mucosal injury ([1]; 10 mg/kg oral): 69.22%

CCCN(CCCC12CC3CC(CC(C3)C1)C2)C(=O)NCCCc1ccncc1 [Compound 3, 1-[3-(1-adamantyl)propyl]-1-propyl-3-[3-(4-pyridyl)propyl]urea]
Calcium influx (%) (human TRPV1): 59.8%

CCCCCN(CCC12CC3CC(CC(C3)C1)C2)C(=O)NCC(C)Cc1ccncc1 (single isomer, unassigned; (+)) [Compound 6, (+)-1-[2-(1-adamantyl)ethyl]-3-[2-methyl-3-(4-pyridyl)propyl]-1-pentylurea]
Calcium influx (%) (human TRPV1): 76.6%

CCCCCN(CCC12CC3CC(CC(C3)C1)C2)C(=O)NC/C=C/c1ccncc1 [Compound 7, (E)-1-[2-(1-adamantyl)ethyl]-1-pentyl-3-[3-(4-pyridyl)-2-propenyl]urea]
Calcium influx (%) (human TRPV1): 36.1%

CCCCCN(CCC12CC3CC(CC(C3)C1)C2)C(=O)NC(C)CCc1ccncc1 (stereo not shown) [Compound 4, 1-[2-(1-adamantyl)ethyl]-3-[1-methyl-3-(4-pyridyl)propyl]-1-pentylurea]
Calcium influx (%) (human TRPV1): 43.9%

O=C(NCCCc1ccncc1)N(CCC(F)(F)F)CCC12CC3CC(CC(C3)C1)C2 [Compound 2, 1-[2-(1-adamantyl)ethyl]-3-[3-(4-pyridyl)propyl]-1-(3,3,3-trifluoropropyl)urea]
Calcium influx (%) (human TRPV1): 74.1%
